Assay results: patent publication USRE46943E1, “Radioprotector compounds and methods” (PETER MACCALLUM CANCER INSTITUTE, priority 2010, dated 2018)

Tests used:
mice = assay: Radioprotection of mouse jejunum, subcutaneous administration: local reaction at injection site; type: in vivo; settings: subcutaneous solutions in polyethylene glycol (MW 400), similar experiments with the jejunum model
Procedure: 2-Hydroxypropyl-β-cyclodextrin (HPCD, Sigma-Aldrich, typical MW 1540) vehicle solution was prepared by dissolving 3.6 g of HPCD in 9.3 mL of phosphate buffered saline (PBS) resulting in 30% v/w solution. […] The concentration of M2PB was measured following appropriate dilution in 45% MeOH 0.1% TFA using an extinction coefficient […] at 345 nm. The M2PB/HPCD stock was diluted to 8.75 mg/mL (22 mM) in HPCD vehicle to produce the final M2PB/HPCD formulation, which was injected subcutaneously into mice, between the shoulder blades (scruff of the neck) at a volume of 8×10^−3 ml/g body weight.
The subsequent irradiation and analysis was as described for Example 56.

[1] = tested on: transformed human keratinocyte cell line (FEP 1811); assay: Clonogenic survival cell culture assay for cytotoxicity; type: cell-based; settings: Homo sapiens, Keratinocyte, light or radiation study; un-irradiated keratinocytes, one hour drug exposure, colonies counted after eight days; read-out: C50 (concentration of radioprotector that results in 50% clonogenic survival)
How it was run: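 Mid-log monolayers exposed to test drug for 1 h, then pronase-dispersed and plated; colonies counted after 8 days. For […], irradiation at 0.6 Gy per minute began 30 min after drug addition, with total drug exposure held at 60 min before plating for clonogenic survival.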

[2] = tested on: transformed human keratinocyte cell line (FEP 1811); assay: Clonogenic survival cell culture assay for radioprotective activity (12 Gy 137Cs gamma irradiation); type: cell-based; settings: 12 Gy; for DMF10 (dose modification factor at a concentration of 10 microM of radioprotector): 10 microM radioprotector; for DMFm (dose modification factor at maximum protection): DMF=Dp/Dc at survival level Sm; for PF (protection factor = Sm/So): survival at maximum protection vs irradiation only
How it was run: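 Survival after irradiation gave protection factor PF = Sm/So (maximum-protection survival over irradiation-only survival). DMF = Dp/Dc is the ratio of doses giving survival Sm with and without radioprotector. DMF10 uses survival at 10 microM radioprotector in place of Sm.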

SMILES | melting point | local reaction or toxicity at the site of subcutaneous injection (mice) | IC50 [1] | DMF10 (dose modification factor at a concentration of 10 microM of radioprotector) [2] | DMFm (dose modification factor at maximum protection) [2] | PF (protection factor = Sm/So) [2]
Cc1cc(N(C)C)ccc1-c1nc2ccc(-c3nc4ccc(N5CCN(C)CC5)cc4[nH]3)cc2[nH]1 [methylproamine, reference compound] | – | had been observed | – | – | – | –
COCCN(C)c1ccc2[nH]c(-c3ccc4[nH]c(-c5ccccn5)nc4c3)nc2c1 [Example 38, 2-(5′-(5″-((2′″-Methoxyethyl)(methyl)amino)benzimidazol-2″-yl)benzimidazol-2′-yl)pyridine] | 150 to 155 °C | – | 41.2 µM | 1.32 | 1.55 | 8.8
c1ccc(-c2nc3ccc(-c4nc5ccc(NN6CCOCC6)cc5[nH]4)cc3[nH]2)nc1 [Example 42, 2-(5′-(5″-(morpholinoamino)benzimidazol-2″-yl)benzimidazol-2′-yl)pyridine] | 198 to 205 °C | – | 206 µM | 1.38 | 1.86 | 17.8
OC1CCCN(c2ccc3nc(-c4ccc5nc(-c6ccccn6)[nH]c5c4)[nH]c3c2)C1 (stereo not drawn) [Example 26, 2-(5′-(5″-(3′″-Hydroxypiperidin-1′″-yl)benzimidazol-2″-yl)benzimidazol-2′-yl)pyridine] | 278 to 282 °C | – | 77.9 µM | 1.33 | 1.90 | 14.7
CN1CCN(c2ccc3nc(-c4ccc5nc(-c6n[nH]c7ccccc67)[nH]c5c4)[nH]c3c2)CC1 [Example 16, 3-(5′-(5″-(4′″-Methylpiperazin-1′″-yl)benzimidazol-2″-yl)benzimidazol-2′-yl)indazole] | 235 °C (dec.) | – | 40.9 µM | 1.78 | 2.16 | 18.3
COc1ccnc(-c2nc3ccc(-c4nc5ccc(N6CCN(C)CC6)cc5[nH]4)cc3[nH]2)c1 [Example 11, 4-Methoxy-2-(5′-(5″-(4′″-methylpiperazin-1′″-yl)benzimidazol-2″-yl)benzimidazol-2′-yl)pyridine] | 190 °C (dec.) | – | 53.6 µM | 1.95 | 2.28 | 51.4
CN1CCN(c2ccc3nc(-c4ccc5nc(-c6ccco6)[nH]c5c4)[nH]c3c2)CC1 [Example 1, 2-(5′-(5″-(4′″-Methylpiperazin-1′″-yl)benzimidazol-2″-yl)benzimidazol-2′-yl)furan] | 202 to 224 °C (dec.) | – | 57.3 µM | 1.14 | 1.37 | 7.7
CNc1ccnc(-c2nc3ccc(-c4nc5ccc(N6CCN(C)CC6)cc5[nH]4)cc3[nH]2)c1 [Example 9, 4-Methylamino-2-(5′-(5″-(4′″-methylpiperazin-1′″-yl)benzimidazol-2″-yl)benzimidazol-2′-yl)pyridine] | 220 °C (dec.) | – | 59.9 µM | 1.14 | 1.55 | 7.1
COCCOCCNc1ccc2nc(-c3ccc4nc(-c5ccccn5)[nH]c4c3)[nH]c2c1 [Example 39, 2-(5′-(5″-(2′″-(2″″-methoxyethoxy)ethylamino)benzimidazol-2″-yl)benzimidazol-2′-yl)pyridine] | 183 to 186 °C | – | 173 µM | 1.50 | 2.70 | 171.5

More lines, main results first:

melting point | SMILES | local reaction or toxicity at the site of subcutaneous injection (mice) | IC50 [1] | DMF10 (dose modification factor at a concentration of 10 microM of radioprotector) [2] | DMFm (dose modification factor at maximum protection) [2] | PF (protection factor = Sm/So) [2]
190 to 195 °C | COc1cc2nc(-c3ccccn3)[nH]c2cc1-c1nc2ccc(N3CCN(C)CC3)cc2[nH]1 [Example 32, 2-(5′-methoxy-6′-(5″-(4′″-methylpiperazin-1′″-yl)benzimidazol-2″-yl)benzimidazol-2′-yl)pyridine] | – | 112 µM | 1.32 | 1.56 | 23.6
203 to 208 °C | CN1CCN(c2ccc3nc(-c4ccc5nc(-c6cc(C(F)(F)F)ccn6)[nH]c5c4)[nH]c3c2)CC1 [Example 48, 2-(5′-(5″-(4′″-methylpiperazin-1′″-yl)benzimidazol-2″-yl)benzimidazol-2′-yl)-4-(trifluoromethyl)pyridine] | – | 23.3 µM | 2.58 | 2.75 | 63.8
198 to 205 °C | CN(C)C1CCN(c2ccc3nc(-c4ccc5nc(-c6ccccn6)[nH]c5c4)[nH]c3c2)CC1 [Example 29, 2-(5′-(5″-(4′″-(Dimethylamino)piperidin-1′″-yl)benzimidazol-2″-yl)benzimidazol-2′-yl)pyridine] | – | 46.9 µM | 1.54 | 1.76 | 18.2
180 °C (dec.) | CN(C)c1ccc2nc(-c3ccc4nc(-c5ccccn5)[nH]c4c3)[nH]c2c1 [Example 28, 2-(5′-(5″-(Dimethylamino)benzimidazol-2″-yl)benzimidazol-2′-yl)pyridine] | – | 60.8 µM | 1.30 | 1.57 | 13.5
200 °C (dec.) | COc1cc(-c2nc3cc(N4CCN(C)CC4)ccc3[nH]2)cc2nc(-c3ccccn3)[nH]c12 [Example 30, 2-(4′-Methoxy-6′-(5″-(4′″-methylpiperazin-1′″-yl)benzimidazol-2″-yl)benzimidazol-2′-yl)pyridine] | – | 158 µM | 1.78 | 1.97 | 13.3
320 °C (dec.) | CN1CCN(c2ccc3nc(-c4ccc5nc(-c6ccc(C(F)(F)F)cn6)[nH]c5c4)[nH]c3c2)CC1 [Example 49, 2-(5′-(5″-(4′″-methylpiperazin-1′″-yl)benzimidazol-2″-yl)benzimidazol-2′-yl)-5-(trifluoromethyl)pyridine] | – | 12.2 µM | 2.21 | 2.38 | 33.1
245 to 247 °C | CN1CCN(c2ccc3nc(-c4ccc5cc(-c6ccccn6)[nH]c5c4)[nH]c3c2)CC1 [Example 31, 2-(6′-(5″-(4′″-Methylpiperazin-1′″-yl)benzimidazol-2″-yl)indol-2′-yl)pyridine] | – | 19.8 µM | 2.09 | 2.20 | 22.8
202 °C (dec.) | c1ccc2cc(-c3nc4ccc(-c5nc6ccc(N7CCOCC7)cc6[nH]5)cc4[nH]3)ncc2c1 [Example 20, 3-(5′-(5″-Morpholinobenzimidazol-2″-yl)benzimidazol-2′-yl)isoquinoline] | – | 172 µM | 1.52 | 1.57 | 11.4
